Reference: BindingDB's records for doi:10.1093/toxsci/47.2.181 (University of Texas M. D. Anderson Cancer Center, 1999)

Biological target: T1, Solute carrier family 22 member 2 (Rattus norvegicus, UniProt Q9R0W2)
T1 sequence (Q9R0W2 whole entry): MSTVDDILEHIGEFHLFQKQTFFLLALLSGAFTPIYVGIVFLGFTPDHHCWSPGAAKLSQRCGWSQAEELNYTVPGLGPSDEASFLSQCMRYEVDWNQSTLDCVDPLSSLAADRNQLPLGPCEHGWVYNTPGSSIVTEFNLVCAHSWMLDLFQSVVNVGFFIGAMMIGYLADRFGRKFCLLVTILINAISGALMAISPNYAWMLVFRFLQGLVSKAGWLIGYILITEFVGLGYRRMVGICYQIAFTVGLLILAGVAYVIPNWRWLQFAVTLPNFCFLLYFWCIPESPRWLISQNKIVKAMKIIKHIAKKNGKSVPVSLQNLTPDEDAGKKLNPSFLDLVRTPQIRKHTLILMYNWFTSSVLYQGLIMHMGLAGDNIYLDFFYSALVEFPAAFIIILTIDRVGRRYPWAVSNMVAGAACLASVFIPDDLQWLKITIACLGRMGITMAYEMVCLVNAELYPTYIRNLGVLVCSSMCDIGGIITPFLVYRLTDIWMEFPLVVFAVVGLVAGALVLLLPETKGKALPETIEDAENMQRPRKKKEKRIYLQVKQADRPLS
Assay: TP_TRANSPORTER: inhibition of TEA uptake (apical to cell) in OCT2-expressing NIH3T3 cells

With `[NH2][Pt]([NH2])([Cl])[Cl]` [cis-Platinum diamminedichloride] the Ki was 925 µM.
